Results from PMC12635456, “In Vivo Inhibition of Dipeptidyl Peptidase 4 and Neprilysin Activity Enables Measurement of GLP-1 Secretion in Male Rats” (Journal of the Endocrine Society, 2025).
Read-outs that look alike come from different tables or passages of the source.

Legend:
[1] = cited from earlier work
Description: Glucagon-like peptide-1 (GLP-1), secreted from enteroendocrine cells in the gut, enhances glucose-stimulated insulin secretion and reduces appetite.

GLP-1 secretion = assay: Oral glucose challenge without inhibitor pretreatment (GLP-1 by RIA and ELISAs); settings: oral glucose 2 g/kg, no inhibitors
Description: In these experiments it was possible to collect relatively large blood samples (∼500 µL), allowing measurements with a single site RIA directed at the C-terminus of the molecule. The samples were collected at time point 0, 15, 30, and 60 minutes after glucose challenge and treated as already described.
Net area under the curve (nAUC) was calculated using the trapezoid rule; baseline was set to the first data point and peaks above and below the baseline were considered. P < .05 was considered significant. Data are shown as mean ± SEM.

| Structure (SMILES) | Half-life in the circulation ([1]; humans) | Half-life in the circulation ([1]; mice) | Half-life in the circulation ([1]; rats) | Increase in GLP-1 concentration 15 minutes following glucose, C-terminal RIA (GLP-1 secretion) | Increase in GLP-1 concentration 15 minutes following glucose, Mercodia total ELISA (GLP-1 secretion) | Total GLP-1 plasma concentration 15 minutes after glucose, RIA (GLP-1 secretion; in-house C-terminal RIA 89390, mean ± SEM, n = 5-6, P < .02 vs baseline) | Intact GLP-1 plasma concentration 15 minutes after glucose, Alpco ELISA (GLP-1 secretion; mean ± SEM, n = 5-6, P < .008 vs baseline) | Total GLP-1 plasma concentration 15 minutes after glucose, Mercodia ELISA (GLP-1 secretion; mean ± SEM, n = 5-6, P < .02 vs baseline) |
| --- | --- | --- | --- | --- | --- | --- | --- | --- |
| CC[C@H](C)[C@H](NC(=O)[C@H](Cc1ccccc1)NC(=O)[C@H](CCC(=O)O)NC(=O)[C@H](CCCCN)NC(=O)[C@H](C)NC(=O)[C@H](C)NC(=O)[C@H](CCC(N)=O)NC(=O)CNC(=O)[C@H](CCC(=O)O)NC(=O)[C@H](CC(C)C)NC(=O)[C@H](Cc1ccc(O)cc1)NC(=O)[C@H](CO)NC(=O)[C@H](CO)NC(=O)[C@@H](NC(=O)[C@H](CC(=O)O)NC(=O)[C@H](CO)NC(=O)[C@@H](NC(=O)[C@H](Cc1ccccc1)NC(=O)[C@@H](NC(=O)CNC(=O)[C@H](CCC(=O)O)NC(=O)[C@H](C)NC(=O)[C@@H](N)Cc1c[nH]cn1)[C@@H](C)O)[C@@H](C)O)C(C)C)C(=O)N[C@@H](C)C(=O)N[C@@H](Cc1c[nH]c2ccccc12)C(=O)N[C@@H](CC(C)C)C(=O)N[C@H](C(=O)N[C@@H](CCCCN)C(=O)NCC(=O)N[C@@H](CCCNC(=N)N)C(N)=O)C(C)C [GLP-1(7-36)NH2] | a few minutes | a few minutes | a few minutes | – | – | – | – | – |
| OC[C@H]1OC(O)[C@H](O)[C@@H](O)[C@@H]1O (some centres unmarked) [glucose] | – | – | – | ~15 pmol/L | around 5 pmol/L | 43.1 ± 3.7 pmol/L | 0.8 ± 0.07 pmol/L | 10.5 ± 1.8 pmol/L |
